Results on three molecules are retold here after publication PMC8890504, “Evolution of Brain-Expressed Biogenic Amine Receptors into Olfactory Trace Amine-Associated Receptors” (Molecular Biology and Evolution, 2022).

One assay deals with shark TAARS1b (Chiloscyllium punctatum, UniProt A0A401S5C1). In words: Cell-based receptor activation reporter assay (SEAP / Dual-Glo luciferase). The arrangement: species or system bamboo shark. As for the experimental part:
(§1) Fluorescence was measured with a BioTek Microplate reader.

A further assay deals with T1, mouse TAAR5 (Mus musculus, UniProt Q5QD14).
T1 construct: bovine rhodopsin N-terminal 20 amino acids (Rho tag); expressed in transfected cells; host or cells: HEK293(T) (SEAP assay) or Hana3A (Dual-Glo assay)
T1 sequence (Q5QD14 whole entry): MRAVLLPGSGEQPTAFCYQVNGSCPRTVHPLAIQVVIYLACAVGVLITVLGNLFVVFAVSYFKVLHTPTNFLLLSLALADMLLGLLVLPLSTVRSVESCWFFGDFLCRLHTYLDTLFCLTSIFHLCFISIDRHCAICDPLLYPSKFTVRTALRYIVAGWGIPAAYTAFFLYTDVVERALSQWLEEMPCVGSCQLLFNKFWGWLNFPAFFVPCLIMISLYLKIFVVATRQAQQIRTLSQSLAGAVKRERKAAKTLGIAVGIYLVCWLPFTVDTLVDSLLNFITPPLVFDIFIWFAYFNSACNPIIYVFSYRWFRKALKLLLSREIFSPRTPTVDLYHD
The assay is described as above. As for the experimental part:
as §1

The target in another assay is T2, mouse TAAR8c (Mus musculus, UniProt Q5QD05).
T2 construct: bovine rhodopsin N-terminal 20 amino acids (Rho tag); expressed in transfected cells; host or cells: HEK293(T) (SEAP assay) or Hana3A (Dual-Glo assay)
T2 sequence (Q5QD05 whole entry): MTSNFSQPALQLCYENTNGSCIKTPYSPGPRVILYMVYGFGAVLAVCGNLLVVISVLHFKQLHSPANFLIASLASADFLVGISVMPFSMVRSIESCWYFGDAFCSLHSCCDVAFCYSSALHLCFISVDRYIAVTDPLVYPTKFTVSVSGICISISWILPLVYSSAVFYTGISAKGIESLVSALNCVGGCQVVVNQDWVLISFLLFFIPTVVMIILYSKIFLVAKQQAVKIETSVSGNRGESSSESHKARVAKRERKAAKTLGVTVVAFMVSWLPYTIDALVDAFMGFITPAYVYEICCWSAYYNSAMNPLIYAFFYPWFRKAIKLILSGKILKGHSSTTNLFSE
The description is as above. How it is done: as §1

The target in another assay is cat TAAR5 (Felis catus, UniProt A0ABI7YAE2). Described as above. As for the experimental part: as §1
Sequence of cat TAAR5 (A0ABI7YAE2 entry or part of it): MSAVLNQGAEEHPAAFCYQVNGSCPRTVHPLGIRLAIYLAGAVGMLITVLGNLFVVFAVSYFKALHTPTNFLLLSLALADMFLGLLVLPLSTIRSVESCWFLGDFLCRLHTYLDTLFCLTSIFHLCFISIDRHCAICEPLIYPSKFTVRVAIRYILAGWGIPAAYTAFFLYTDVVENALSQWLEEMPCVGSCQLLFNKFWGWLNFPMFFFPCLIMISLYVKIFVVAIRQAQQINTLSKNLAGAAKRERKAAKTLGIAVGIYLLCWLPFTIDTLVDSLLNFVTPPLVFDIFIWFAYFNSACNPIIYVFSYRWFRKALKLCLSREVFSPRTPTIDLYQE
In a further assay the target is sheep TAAR5 (Ovis aries, UniProt A0ACI6PZ16). Described as above. How it is done: as §1
Sequence of sheep TAAR5 (A0ACI6PZ16 entry or part of it): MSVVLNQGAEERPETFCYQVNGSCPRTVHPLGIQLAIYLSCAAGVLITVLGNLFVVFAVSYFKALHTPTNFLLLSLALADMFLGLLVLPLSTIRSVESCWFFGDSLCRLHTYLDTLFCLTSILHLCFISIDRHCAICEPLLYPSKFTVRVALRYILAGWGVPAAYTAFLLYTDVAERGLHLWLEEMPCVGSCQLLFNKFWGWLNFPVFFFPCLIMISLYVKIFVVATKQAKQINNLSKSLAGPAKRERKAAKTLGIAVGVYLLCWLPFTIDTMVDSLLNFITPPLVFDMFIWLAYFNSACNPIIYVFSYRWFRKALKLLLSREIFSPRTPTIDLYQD
A further assay has as its target cow TAAR5 (Bos taurus, UniProt F1MTC9). In words: cell-based. The following applies: EC50 (μM). An excerpt:
(§2) Next, we conducted high-throughput screening to further explore the functional properties of these aminergic receptors. We cloned 248 TAARs from 11 mammals (human, mouse, rat, guinea pig, hamster, cat, horse, rabbit, sheep, rhesus, and wild boar), two reptiles (alligator and chicken), six teleosts (zebrafish, catfish, fugu, medaka, salmon, and pufferfish), one lobed-finned fish (coelacanth), one holost fish (spotted gar), and one cartilaginous fish (bamboo shark) (fig. 2A). We also cloned eight TARLs from coelacanth, zebrafish, catfish, fugu, medaka, spotted gar, shark, and 28 TARLLs from sea lamprey (supplementary table S2, Supplementary Material online). In addition, we cloned two HTR4s from mouse and zebrafish. We then challenged all of the cloned receptors with a ligand library comprised 97 amines at 100 µM.
(§3) HEK293 cells were plated onto poly-D-lysine (Sigma–Aldrich) preincubated 96-well plates (Corning) with 50 µl growth medium (DMEM medium with 10% BCS and 5% penicillin–streptomycin solution) and cultured for 18–24 h. Receptor plasmids were cotransfected with Cre-SEAP plasmid using polyethylenimine (PEI, Polysciences) and incubated at 37 °C with 5% CO2. About 4 h later, cells were incubated with or without test compounds diluted in serum-free DMEM for 48 h, followed by incubating for 2 h at 70 °C. After returning to room temperature, 50 µl supernatant from each well was incubated with an equal volume of 0.3 mM 4-methylumbelliferyl phosphate (4-MUP, Sigma–Aldrich) in 2 M diethanolamine bicarbonate (Sigma–Aldrich), pH 10.0 for 15 min. Fluorescence was measured with a BioTek Microplate reader.
(§4) Hana3A cells were plated onto 96-well plates (Greiner bio-one) with 50 µl growth medium (DMEM medium with 10% BCS and 5% penicillin–streptomycin solution with puromycin) and cultured at 37 °C with 5% CO2. After 18–24 h, cells in each well were cotransfected with 50 ng receptor plasmid, 10 ng CRE-Luc, 10 ng pRL-SV40, and 10 ng mRTPs using Lipofectamine 2000 (Invitrogen), and incubated for 18 h. Medium was then replaced by 25 µl CD293 (Invitrogen) containing 1% glutamine with or without test compounds for 4 h. The chemiluminescence of firefly luciferase and renilla luciferase were measured with a Biotek Microplate reader using the Dual-Glo Luciferase Assay System (Promega).

A further assay deals with hamster TAAR5 (Mesocricetus auratus, UniProt A0A1U7QEC3). In words: cell-based.
Sequence of hamster TAAR5 (A0A1U7QEC3 entry or part of it): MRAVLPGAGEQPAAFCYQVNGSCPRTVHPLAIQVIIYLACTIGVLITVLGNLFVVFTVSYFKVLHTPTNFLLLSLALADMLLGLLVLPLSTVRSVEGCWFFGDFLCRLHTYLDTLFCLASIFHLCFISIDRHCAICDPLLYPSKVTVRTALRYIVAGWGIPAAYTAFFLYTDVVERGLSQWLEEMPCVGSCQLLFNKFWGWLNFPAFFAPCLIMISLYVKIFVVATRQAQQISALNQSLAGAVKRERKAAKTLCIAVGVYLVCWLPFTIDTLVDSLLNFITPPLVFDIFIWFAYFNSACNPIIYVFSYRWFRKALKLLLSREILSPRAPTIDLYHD
Description: as §2, §3, §4

The target in the next assay is TARLL3h (Petromyzon marinus, UniProt A0A678XJN9). In words: Cell-based receptor activation reporter assay (SEAP / Dual-Glo luciferase). Further details: species or system sea lamprey. How it is done: as §1
Sequence of TARLL3h (A0A678XJN9 entry or part of it): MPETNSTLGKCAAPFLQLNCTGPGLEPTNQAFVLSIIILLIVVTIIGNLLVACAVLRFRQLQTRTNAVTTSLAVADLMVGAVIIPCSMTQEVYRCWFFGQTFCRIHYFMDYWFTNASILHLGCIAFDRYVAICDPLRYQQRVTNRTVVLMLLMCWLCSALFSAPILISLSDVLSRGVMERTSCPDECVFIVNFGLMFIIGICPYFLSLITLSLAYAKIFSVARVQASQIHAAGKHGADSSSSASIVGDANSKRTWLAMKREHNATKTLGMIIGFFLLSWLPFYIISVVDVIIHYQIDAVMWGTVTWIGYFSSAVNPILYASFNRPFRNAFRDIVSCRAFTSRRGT
In the next assay the test system is TARLL3h D3.32A. In words: Site-directed mutagenesis, cell-based receptor activation. The arrangement: species or system sea lamprey. To be noted: mutation of Asp3.32 to alanine; ligand per fig. S9C. As for the experimental part:
(§5) Recognition of diamines in TAARs involves two aspartic acids, Asp^3.32 and Asp^5.42 ([Li et al. 2015]; [Sharma et al. 2016]). However, although Asp^3.32 is retained in TARLL3h, Asp^5.42 is not found, implying a distinct diamine recognition mechanism in TARLL3h. To investigate this further, we performed homology modeling and ligand docking in TARLL3h. In addition to Asp^3.32 that forms a salt bridge with N,N,N′,N′-tetramethyl-1,4-butanediamine or N,N,N′,N′-tetramethyl-1,3-propanediamine, Tyr^3.33 binds to the other amino group through pi–cation interactions in TARLL3h (fig. 4D). […] To verify the docking results, we performed site-directed mutagenesis in TARLL3h.
as §1

In a further assay the test system is TARLL3h Y3.33A. The description is as above. The arrangement: species or system sea lamprey. The following applies: mutation of Tyr3.33 to alanine; ligand per fig. S9C. How it is done: as §5, §1
A further assay relates to TARLL3h Y3.33F. The description is as above. Further details: species or system sea lamprey. The following applies: mutation of Tyr3.33 to phenylalanine; ligand per fig. S9C. How it is done: as §5, §1

The term EC50 denotes the concentration giving half of the maximal effect. The low end stands for a more potent agent, the high end for a less potent agent.

Where “and” joins values, the source holds several entries; their conditions need not be identical. Equal entries are not always repeated.

Sequence of shark TAARS1b (A0A401S5C1 entry or part of it): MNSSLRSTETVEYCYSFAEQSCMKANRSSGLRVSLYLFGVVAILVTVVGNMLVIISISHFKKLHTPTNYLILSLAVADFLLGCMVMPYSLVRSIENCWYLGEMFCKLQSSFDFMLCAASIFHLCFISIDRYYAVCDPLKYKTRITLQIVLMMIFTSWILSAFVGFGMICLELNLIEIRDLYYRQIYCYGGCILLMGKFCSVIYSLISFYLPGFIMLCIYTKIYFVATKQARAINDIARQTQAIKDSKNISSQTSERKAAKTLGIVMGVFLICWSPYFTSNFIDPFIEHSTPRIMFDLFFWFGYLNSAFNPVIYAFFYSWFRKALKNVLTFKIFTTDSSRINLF
Sequence of cow TAAR5 (F1MTC9 entry or part of it): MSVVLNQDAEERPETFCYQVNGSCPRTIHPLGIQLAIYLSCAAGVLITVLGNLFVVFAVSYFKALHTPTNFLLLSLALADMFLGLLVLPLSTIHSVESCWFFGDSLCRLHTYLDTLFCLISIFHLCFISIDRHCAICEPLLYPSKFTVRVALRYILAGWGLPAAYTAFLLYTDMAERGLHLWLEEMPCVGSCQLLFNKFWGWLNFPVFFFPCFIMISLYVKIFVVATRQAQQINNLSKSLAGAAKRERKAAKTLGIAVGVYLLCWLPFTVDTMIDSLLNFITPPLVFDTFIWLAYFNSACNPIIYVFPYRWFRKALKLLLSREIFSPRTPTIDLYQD

`CN1CCCCC1` [1-methylpiperidine]: the EC50 at shark TAARS1b came out at 17.6 µM; at mouse TAAR5, 8.2 µM; at mouse TAAR8c it was 1.5 µM.
`CN(C)C` [Trimethylamine, trimethylamine]: the EC50 on shark TAARS1b is 1.4 µM; at cat TAAR5 it was 6.9 µM; at sheep TAAR5, 500 µM and ~500 µM; on cow TAAR5, 300 µM and ~300 µM; on hamster TAAR5, 2.3 µM.
In turn, `CN(C)CCCCN(C)C` [N,N,N',N'-tetramethyl-1,4-butanediamine, N,N,N′,N′-tetramethyl-1,4-butanediamine] returned an EC50 on TARLL3h (TARLL3h) of 40.4 µM. The “ligand recognition by TARLL3h” value on TARLL3h (fig. 4C) is recorded as “recognizes”. In the assay on TARLL3h D3.32A, the “receptor activity of TARLL3h mutant D3.32A” value is listed as “completely eliminated the receptor activity”. For the same molecule, in the assay with TARLL3h Y3.33A, the “receptor activity of TARLL3h mutant Y3.33A” value is listed as “completely eliminated the receptor activity”. In the assay on TARLL3h Y3.33F, the “EC50 of TARLL3h mutant Y3.33F relative to wild type receptor” value was “EC50 three times higher than wild type receptor”.
